Assay results reported in US20060069132A1, “Azolecarboxamide herbicides” (priority 2004, published 2006).

Assays:
barnyardgrass [1] = assay: Test A pre-/postemergence herbicide test; format: in vivo, Echinochloa crus-galli
How it was run: (§1)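 Greenhouse injury scoring (0–100, complete control = 100) at approximately ten days follows simultaneous pre- and postemergence application. Soil received a directed spray after seeding; seedlings of 2–10 cm at the one- to two-leaf stage were sprayed to runoff.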

large crabgrass [2] = assay: Test A pre-/postemergence herbicide test; format: in vivo, Digitaria sanguinalis
How it was run: as §1

giant foxtail [3] = assay: Test A pre-/postemergence herbicide test; format: in vivo, Setaria faberi
How it was run: as §1

morningglory [4] = assay: Test A pre-/postemergence herbicide test; format: in vivo, Ipomoea spp.
How it was run: as §1

redroot pigweed = assay: Test A pre-/postemergence herbicide test; format: in vivo, Amaranthus retroflexus
How it was run: as §1

velvetleaf [5] = assay: Test A pre-/postemergence herbicide test; format: in vivo, Abutilon theophrasti
How it was run: as §1

rice [6] = assay: Test B flooded paddy test; format: in vivo, Oryza sativa; conditions: 1000 g ai/ha, scale 0 to 100 (0 no effect, 100 complete control)
How it was run: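 After treating 2-leaf paddy plants or 2–18 cm postemergence plants (1 to 4 leaves) with formulated chemical, researchers kept them in a greenhouse for 13–15 days. Effects were judged visually versus controls: 0 indicates none, 100 total control.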

[7] = system: small flower umbrella sedge; assay: Test B flooded paddy test; format: in vivo, Cyperus difformis; conditions: 1000 g ai/ha, scale 0 to 100 (0 no effect, 100 complete control)
How it was run: (§2)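 Greenhouse test; postemergence application to plants at 1–4 leaves (2–18 cm); paddy species at 2 leaves; evaluated visually vs controls at 13–15 days; scale 0–100 (100 = complete control).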

ducksalad [8] = assay: Test B flooded paddy test; format: in vivo, Heteranthera limosa; conditions: 1000 g ai/ha, scale 0 to 100 (0 no effect, 100 complete control)
How it was run: as §2

barnyardgrass [9] = assay: Test B flooded paddy test; format: in vivo, Echinochloa crus-galli; conditions: 1000 g ai/ha, scale 0 to 100 (0 no effect, 100 complete control)
How it was run: as §2

rice [10] = assay: Test C flooded paddy test; format: in vivo, Oryza sativa
How it was run: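 Postemergence sprays applied to plants 2 to 18 cm tall (1- to 4-leaf stage); paddy species grown to 2-leaf stage under flooding. After 12 to 14 days in greenhouse, visual rating versus untreated controls on 0–100 scale (0 no effect, 100 complete control).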

[11] = system: smallflower umbrella sedge; assay: Test C flooded paddy test; format: in vivo, Cyperus difformis
ducksalad [12] = assay: Test C flooded paddy test; format: in vivo, Heteranthera limosa
barnyardgrass [13] = assay: Test C flooded paddy test; format: in vivo, Echinochloa crus-galli
How it was run: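 Postemergence sprays were applied to plants 2 to 18 cm tall (1- to 4-leaf stage); in the flooded paddy test, barnyardgrass was grown to the 2-leaf stage. After 12 to 14 days in a greenhouse, injury was visually rated against untreated controls on a 0–100 scale (100 = complete control).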

barnyardgrass [14] = assay: Test B pre-/postemergence herbicide test; format: in vivo, Echinochloa crus-galli; conditions: for Barnyardgrass plant response rating: postemergence
How it was run: (§3)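 Greenhouse pot assay with simultaneous preemergence (treated seed) and postemergence (2–18 cm seedlings) applications of surfactant-containing, non-phytotoxic solvent formulations. Response scored visually 13–15 days later on a 0–100 scale, 100 meaning complete control.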

Surinam grass = assay: Test B pre-/postemergence herbicide test; format: in vivo, Urochloa decumbens; conditions: for Surinam Grass plant response rating: postemergence
How it was run: (§4)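 Flooded paddy rice and barnyardgrass were treated at the 2-leaf stage; upland plantings received compound either on sown seed or on 1- to 4-leaf seedlings. All were kept 13–15 days in a greenhouse and scored visually, 0–100, relative to untreated plants.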

cocklebur = assay: Test B pre-/postemergence herbicide test; format: in vivo, Xanthium strumarium; conditions: for Cocklebur plant response rating: postemergence
How it was run: as §3

corn = assay: Test B pre-/postemergence herbicide test; format: in vivo, Zea mays; conditions: for Corn plant response rating: postemergence
How it was run: as §4

large crabgrass [15] = assay: Test B pre-/postemergence herbicide test; format: in vivo, Digitaria sanguinalis; conditions: for Crabgrass, Large plant response rating: postemergence
How it was run: as §4

giant foxtail [16] = assay: Test B pre-/postemergence herbicide test; format: in vivo, Setaria faberi; conditions: for Foxtail, Giant plant response rating: postemergence
How it was run: as §4

lambsquarters = assay: Test B pre-/postemergence herbicide test; format: in vivo, Chenopodium album; conditions: for Lambsquarters plant response rating: postemergence
How it was run: as §4

morningglory [17] = assay: Test B pre-/postemergence herbicide test; format: in vivo, Ipomoea coccinea; conditions: for Morningglory plant response rating: postemergence
How it was run: as §3

pigweed = assay: Test B pre-/postemergence herbicide test; format: in vivo, Amaranthus retroflexus; conditions: for Pigweed plant response rating: postemergence
How it was run: as §4

velvetleaf [18] = assay: Test B pre-/postemergence herbicide test; format: in vivo, Abutilon theophrasti; conditions: for Velvetleaf plant response rating: postemergence
How it was run: as §4

blackgrass = assay: Test B postemergence herbicide test; format: in vivo, Alopecurus myosuroides; conditions: postemergence
How it was run: as §2

wheat = assay: Test B postemergence herbicide test; format: in vivo, Triticum aestivum; design: key to Wheat plant response rating: 0 = no effect, 100 = complete control; conditions: postemergence
How it was run: (§5)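 Read-out: visual comparison with controls, scored 0 to 100, where 100 means complete control and 0 no effect. Formulated chemicals were applied postemergence to plants 2–18 cm tall (1- to 4-leaf), or to flooded-paddy plants at the 2-leaf stage, then held 13 to 15 days under glass.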

wild oat = assay: Test B postemergence herbicide test; format: in vivo, Avena fatua; conditions: postemergence
How it was run: as §5

[19] = Postemergence, 500 g ai/ha, 0 to 100 scale, 0 no effect, 100 complete control
[20] = Postemergence, 2000 g ai/ha, 0 to 100 scale, 0 no effect, 100 complete control
[21] = Preemergence, 2000 g ai/ha, visual rating, 0 to 100 scale (0 no effect, 100 complete control)
[22] = preemergence, 500 g ai/ha, visual injury, 0 to 100 scale (0 no effect, 100 complete control)
[23] = 125 g ai/ha, scale 0 to 100 (0 no effect, 100 complete control)
[24] = 250 g ai/ha, scale of 0 to 100, 0 is no effect, 100 is complete control
[25] = 500 g ai/ha, visual rating after 12 to 14 days, scale 0 to 100 (0 no effect, 100 complete control)
[26] = 125 g ai/ha, 0 is no effect, 100 is complete control, preemergence
[27] = 125 g ai/ha, visual rating, scale 0 (no effect) to 100 (complete control)
[28] = 500 g ai/ha, visual rating, 0 = no effect, 100 = complete control, preemergence
[29] = 500 g ai/ha, scale 0 to 100, 0 is no effect, 100 is complete control

## CCOC(=O)c1cncc(NC(=O)c2cc(C(C)(C)C)nn2CC)c1 [Compound 255]
Barnyardgrass [1]; [19]
  Barnyardgrass plant response rating: 40
Barnyardgrass [1]; [20]
  Plant response rating, Barnyardgrass: 70
Barnyardgrass [1]; [21]
  Barnyardgrass plant response rating: 75
Barnyardgrass [1]; [22]
  Barnyardgrass plant response rating: 55
Large crabgrass [2]; [19]
  Crabgrass, Large plant response rating: 20
Large crabgrass [2]; [20]
  Plant response rating, Crabgrass, Large: 40
Large crabgrass [2]; [21]
  Crabgrass, Large plant response rating: 55
Large crabgrass [2]; [22]
  Crabgrass, Large plant response rating: 35
Giant foxtail [3]; [19]
  Foxtail, Giant plant response rating: 30
Giant foxtail [3]; [20]
  Plant response rating, Foxtail, Giant: 55
Giant foxtail [3]; [21]
  Foxtail, Giant plant response rating: 60
Giant foxtail [3]; [22]
  Foxtail, Giant plant response rating: 45
Morningglory [4]; [19]
  Morningglory plant response rating: 10
Morningglory [4]; [20]
  Plant response rating, Morningglory: 25
Morningglory [4]; [21]
  Morningglory plant response rating: 70
Morningglory [4]; [22]
  Morningglory plant response rating: 30
Redroot pigweed; [19]
  Pigweed plant response rating: 70
Redroot pigweed; [20]
  Plant response rating, Pigweed: 100
Redroot pigweed; [21]
  Pigweed plant response rating: 100
Redroot pigweed; [22]
  Pigweed plant response rating: 90
Velvetleaf [5]; [19]
  Velvetleaf plant response rating: 35
Velvetleaf [5]; [20]
  Plant response rating, Velvetleaf: 50
Velvetleaf [5]; [21]
  Velvetleaf plant response rating: 50
Velvetleaf [5]; [22]
  Velvetleaf plant response rating: 30
Rice [6]
  Rice plant response rating: 70
[7]
  Sedge, Umbrella plant response rating: 80
Ducksalad [8]
  Ducksalad plant response rating: 80
Barnyardgrass [9]
  Barnyardgrass plant response rating: 70
Rice [10]; 62 g ai/ha, scale 0 to 100
  Rice plant response rating: 0
Rice [10]; [23]
  Rice plant response rating: 0
Rice [10]; [24]
  Rice plant response rating: 45
Rice [10]; [25]
  Plant response rating, Rice: 50
[11]; 62 g ai/ha, scale 0 to 100
  Sedge, Umbrella plant response rating: 0
[11]; [23]
  Sedge, Umbrella plant response rating: 20
[11]; [24]
  Sedge, Umbrella plant response rating: 35
[11]; [25]
  Plant response rating, Sedge, Umbrella: 45
Ducksalad [12]; 62 g ai/ha, scale 0 to 100
  Ducksalad plant response rating: 0
Ducksalad [12]; [23]
  Ducksalad plant response rating: 10
Ducksalad [12]; [24]
  Ducksalad plant response rating: 35
Ducksalad [12]; [25]
  Plant response rating, Ducksalad: 40
Barnyardgrass [13]; 62 g ai/ha, scale 0 to 100 (0 no effect, 100 complete control)
  Barnyardgrass plant response rating: 0
Barnyardgrass [13]; [23]
  Barnyardgrass plant response rating: 10
Barnyardgrass [13]; [24]
  Barnyardgrass plant response rating: 25
Barnyardgrass [13]; [25]
  Plant response rating, Barnyardgrass: 35

## CCn1nc(C(C)(C)C)cc1C(=O)Nc1cc(OC)ccc1F [Compound 347]
Barnyardgrass [1]; [19]
  Barnyardgrass plant response rating: 0
Barnyardgrass [1]; [20]
  Plant response rating, Barnyardgrass: 0
Barnyardgrass [1]; [21]
  Barnyardgrass plant response rating: 0
Barnyardgrass [1]; [22]
  Barnyardgrass plant response rating: 0
Large crabgrass [2]; [19]
  Crabgrass, Large plant response rating: 0
Large crabgrass [2]; [20]
  Plant response rating, Crabgrass, Large: 0
Large crabgrass [2]; [21]
  Crabgrass, Large plant response rating: 0
Large crabgrass [2]; [22]
  Crabgrass, Large plant response rating: 0
Giant foxtail [3]; [19]
  Foxtail, Giant plant response rating: 0
Giant foxtail [3]; [20]
  Plant response rating, Foxtail, Giant: 0
Giant foxtail [3]; [21]
  Foxtail, Giant plant response rating: 0
Giant foxtail [3]; [22]
  Foxtail, Giant plant response rating: 0
Morningglory [4]; [19]
  Morningglory plant response rating: 0
Morningglory [4]; [20]
  Plant response rating, Morningglory: 0
Morningglory [4]; [21]
  Morningglory plant response rating: 0
Morningglory [4]; [22]
  Morningglory plant response rating: 0
Redroot pigweed; [19]
  Pigweed plant response rating: 0
Redroot pigweed; [20]
  Plant response rating, Pigweed: 0
Redroot pigweed; [21]
  Pigweed plant response rating: 0
Redroot pigweed; [22]
  Pigweed plant response rating: 0
Velvetleaf [5]; [19]
  Velvetleaf plant response rating: 0
Velvetleaf [5]; [20]
  Plant response rating, Velvetleaf: 0
Velvetleaf [5]; [21]
  Velvetleaf plant response rating: 0
Velvetleaf [5]; [22]
  Velvetleaf plant response rating: 0
Barnyardgrass [14]; [26]
  Plant response rating (0 to 100 scale), Barnyardgrass: 0
Barnyardgrass [14]; [27]
  Barnyardgrass plant response rating: 0
Barnyardgrass [14]; [28]
  Plant response rating, Barnyardgrass: 0
Barnyardgrass [14]; [29]
  Barnyardgrass plant response rating: 0
Surinam grass; [26]
  Plant response rating (0 to 100 scale), Surinam Grass: 0
Surinam grass; [27]
  Surinam Grass plant response rating: 0
Surinam grass; [28]
  Plant response rating, Surinam Grass: 0
Surinam grass; [29]
  Surinam Grass plant response rating: 0
cocklebur; [26]
  Plant response rating (0 to 100 scale), Cocklebur: 0
cocklebur; [27]
  Cocklebur plant response rating: 0
cocklebur; [28]
  Plant response rating, Cocklebur: 0
cocklebur; [29]
  Cocklebur plant response rating: 0
corn; [26]
  Plant response rating (0 to 100 scale), Corn: 0
corn; [27]
  Corn plant response rating: 0
corn; [28]
  Plant response rating, Corn: 0
corn; [29]
  Corn plant response rating: 0
Large crabgrass [15]; [26]
  Plant response rating (0 to 100 scale), Crabgrass, Large: 0
Large crabgrass [15]; [27]
  Crabgrass, Large plant response rating: 0
Large crabgrass [15]; [28]
  Plant response rating, Crabgrass, Large: 0
Large crabgrass [15]; [29]
  Crabgrass, Large plant response rating: 0
Giant foxtail [16]; [26]
  Plant response rating (0 to 100 scale), Foxtail, Giant: 0
Giant foxtail [16]; [27]
  Foxtail, Giant plant response rating: 0
Giant foxtail [16]; [28]
  Plant response rating, Foxtail, Giant: 0
Giant foxtail [16]; [29]
  Foxtail, Giant plant response rating: 0
lambsquarters; [26]
  Plant response rating (0 to 100 scale), Lambsquarters: 0
lambsquarters; [27]
  Lambsquarters plant response rating: 10
lambsquarters; [28]
  Plant response rating, Lambsquarters: 0
lambsquarters; [29]
  Lambsquarters plant response rating: 10
Morningglory [17]; [26]
  Plant response rating (0 to 100 scale), Morningglory: 0
Morningglory [17]; [27]
  Morningglory plant response rating: 0
Morningglory [17]; [28]
  Plant response rating, Morningglory: 0
Morningglory [17]; [29]
  Morningglory plant response rating: 10
pigweed; [26]
  Plant response rating (0 to 100 scale), Pigweed: 0
pigweed; [27]
  Pigweed plant response rating: 0
pigweed; [28]
  Plant response rating, Pigweed: 0
pigweed; [29]
  Pigweed plant response rating: 10
Velvetleaf [18]; [26]
  Plant response rating (0 to 100 scale), Velvetleaf: 0
Velvetleaf [18]; [27]
  Velvetleaf plant response rating: 0
Velvetleaf [18]; [29]
  Velvetleaf plant response rating: 0
blackgrass; [27]
  Blackgrass plant response rating: 30
blackgrass; [29]
  Blackgrass plant response rating: 30
wheat; [27]
  Wheat plant response rating: 0
wheat; [29]
  Wheat plant response rating: 0
Wild oat; [27]
  Oat, Wild plant response rating: 0
Wild oat; [29]
  Oat, Wild plant response rating: 20
Rice [6]
  Rice plant response rating: 0
[7]
  Sedge, Umbrella plant response rating: 0
Ducksalad [8]
  Ducksalad plant response rating: 0
Barnyardgrass [9]
  Barnyardgrass plant response rating: 0
